# Assay results: ChEMBL document CHEMBL3885881, “DrugMatrix”
# Key:
# [1] = species: Rattus norvegicus; type: toxicity, organism-based, Sprague-Dawley; settings: in vivo, ip, 0 mg/kg, 24 h, vehicle control, route intraperitoneal, dose level Control, time 1 day, vehicle .1 % RSA/SALINE
# Description: DrugMatrix - Regimen: Single
# [2] = species: Rattus norvegicus; assay: DrugMatrix - Regimen: Daily Repeat; type: toxicity, organism-based, Sprague-Dawley; design: regimen Daily Repeat, gender Male, age 6-8 weeks; settings: in vivo, iv, 0 mg/kg, dose level Control, vehicle 100 % SALINE
# [3] = 72 h, tissue Plasma, time 3 day
# [4] = 120 h, tissue Blood, time 5 day
# [5] = 120 h, tissue Plasma, time 5 day
sequence,measurement,setting,value
"INTERLEUKIN 6, RAT",ABSOLUTE EOSINOPHIL,[1]; tissue Blood,109.33 CELLS/uL
same,ABSOLUTE LYMPHOCYTE,[1]; tissue Blood,13180.67 CELLS/uL
same,ABSOLUTE MONOCYTE,[1]; tissue Blood,354 CELLS/uL
same,ABSOLUTE SEGMENTED NEUTROPHIL,[1]; tissue Blood,1756 CELLS/uL
same,BASOPHIL,[1]; tissue Blood,0%
same,EOSINOPHIL,[1]; tissue Blood,0.67%
same,ERYTHROCYTE COUNT,[1]; tissue Blood,5.38 x10E6/uL
same,HEMOGLOBIN,[1]; tissue Blood,12.57 G/DL
same,LEUKOCYTE COUNT,[1]; tissue Blood,15.4 x10E3/uL
same,LYMPHOCYTE,[1]; tissue Blood,85%
same,MEAN CORPUSCULAR HEMOGLOBIN,[1]; tissue Blood,23.37 pg
same,MEAN CORPUSCULAR HEMOGLOBIN CONCENTRATION,[1]; tissue Blood,38.3 G/DL
same,NEUTROPHIL,[1]; tissue Blood,12%
same,NUCLEATED RED BLOOD CELLS,[1]; tissue Blood,0 /100WBC
same,PLATELET COUNT,[1]; tissue Blood,832.33 x10E3/uL
same,ALANINE AMINOTRANSFERASE,[1]; tissue Plasma,37.33 u/L
same,ALBUMIN,[1]; tissue Plasma,4 G/DL
same,ALKALINE PHOSPHATASE,[1]; tissue Plasma,344.67 u/L
same,ASPARTATE AMINOTRANSFERASE,[1]; tissue Plasma,69.33 u/L
same,BLOOD UREA NITROGEN,[1]; tissue Plasma,13.67 mg/dL
same,CARBON DIOXIDE,[1]; tissue Plasma,28.33 mmol/L
same,CHLORIDE,[1]; tissue Plasma,99.67 MEQ/L
same,CHOLESTEROL,[1]; tissue Plasma,73.67 mg/dL
same,CREATINE PHOSPHOKINASE,[1]; tissue Plasma,270 u/L
same,CREATININE,[1]; tissue Plasma,0.19 mg/dL
same,GLUCOSE,[1]; tissue Plasma,176.33 mg/dL
same,LACTATE DEHYDROGENASE,[1]; tissue Plasma,160 u/L
same,PHOSPHORUS,[1]; tissue Plasma,13.47 mg/dL
same,POTASSIUM,[1]; tissue Plasma,6.77 MEQ/L
same,TOTAL BILIRUBIN,[1]; tissue Plasma,0.13 mg/dL
same,TOTAL PROTEIN,[1]; tissue Plasma,6.07 G/DL
same,URIC ACID,[1]; tissue Plasma,1.87 mg/dL
LIPOPOLYSACCHARIDE E. COLI O55:B5,ABSOLUTE BASOPHIL,"[2]; 72 h, tissue Blood, time 3 day",0 CELLS/uL
same,ABSOLUTE EOSINOPHIL,"[2]; 72 h, tissue Blood, time 3 day",33.67 CELLS/uL
same,ABSOLUTE LYMPHOCYTE,"[2]; 72 h, tissue Blood, time 3 day",12123.5 CELLS/uL
same,ABSOLUTE MONOCYTE,"[2]; 72 h, tissue Blood, time 3 day",243.5 CELLS/uL
same,ABSOLUTE SEGMENTED NEUTROPHIL,"[2]; 72 h, tissue Blood, time 3 day",1282.67 CELLS/uL
same,BASOPHIL,"[2]; 72 h, tissue Blood, time 3 day",0%
same,EOSINOPHIL,"[2]; 72 h, tissue Blood, time 3 day",0.33%
same,ERYTHROCYTE COUNT,"[2]; 72 h, tissue Blood, time 3 day",5.18 x10E6/uL
same,HEMATOCRIT,"[2]; 72 h, tissue Blood, time 3 day",32.63%
same,LEUKOCYTE COUNT,"[2]; 72 h, tissue Blood, time 3 day",13.68 x10E3/uL
same,LYMPHOCYTE,"[2]; 72 h, tissue Blood, time 3 day",88.67%
same,MEAN CORPUSCULAR HEMOGLOBIN,"[2]; 72 h, tissue Blood, time 3 day",24.98 pg
same,NEUTROPHIL,"[2]; 72 h, tissue Blood, time 3 day",9.17%
same,NUCLEATED RED BLOOD CELLS,"[2]; 72 h, tissue Blood, time 3 day",0.17 /100WBC
same,PLATELET COUNT,"[2]; 72 h, tissue Blood, time 3 day",1114.5 x10E3/uL
same,ALANINE AMINOTRANSFERASE,[2]; [3],46.17 u/L
same,ALKALINE PHOSPHATASE,[2]; [3],374.67 u/L
same,ASPARTATE AMINOTRANSFERASE,[2]; [3],89.33 u/L
same,BLOOD UREA NITROGEN,[2]; [3],14.83 mg/dL
same,CARBON DIOXIDE,[2]; [3],25.67 mmol/L
same,CHOLESTEROL,[2]; [3],63.5 mg/dL
same,CREATINE PHOSPHOKINASE,[2]; [3],494.67 u/L
same,CREATININE,[2]; [3],0.17 mg/dL
same,LACTATE DEHYDROGENASE,[2]; [3],269.33 u/L
same,PHOSPHORUS,[2]; [3],11.27 mg/dL
same,POTASSIUM,[2]; [3],5.85 MEQ/L
same,TOTAL BILIRUBIN,[2]; [3],0.18 mg/dL
same,TOTAL PROTEIN,[2]; [3],5.87 G/DL
same,URIC ACID,[2]; [3],1.28 mg/dL
same,ABSOLUTE BASOPHIL,[2]; [4],0 CELLS/uL
same,ABSOLUTE EOSINOPHIL,[2]; [4],24.67 CELLS/uL
same,ABSOLUTE LYMPHOCYTE,[2]; [4],11832.83 CELLS/uL
same,ABSOLUTE MONOCYTE,[2]; [4],279.67 CELLS/uL
same,ABSOLUTE SEGMENTED NEUTROPHIL,[2]; [4],1446.17 CELLS/uL
same,BASOPHIL,[2]; [4],0%
same,EOSINOPHIL,[2]; [4],0.17%
same,ERYTHROCYTE COUNT,[2]; [4],5.61 x10E6/uL
same,HEMATOCRIT,[2]; [4],35.02%
same,HEMOGLOBIN,[2]; [4],13.82 G/DL
same,LEUKOCYTE COUNT,[2]; [4],13.58 x10E3/uL
same,LYMPHOCYTE,[2]; [4],87.67%
same,MEAN CORPUSCULAR HEMOGLOBIN,[2]; [4],24.68 pg
same,MONOCYTE,[2]; [4],2%
same,NEUTROPHIL,[2]; [4],10.17%
same,NUCLEATED RED BLOOD CELLS,[2]; [4],0 /100WBC
same,PLATELET COUNT,[2]; [4],1178.17 x10E3/uL
same,ALANINE AMINOTRANSFERASE,[2]; [5],52.83 u/L
same,ALKALINE PHOSPHATASE,[2]; [5],370 u/L
same,ASPARTATE AMINOTRANSFERASE,[2]; [5],100.5 u/L
same,BLOOD UREA NITROGEN,[2]; [5],15.17 mg/dL
same,CARBON DIOXIDE,[2]; [5],28.83 mmol/L
same,CHOLESTEROL,[2]; [5],69.5 mg/dL
same,CREATINE PHOSPHOKINASE,[2]; [5],488.67 u/L
same,CREATININE,[2]; [5],0.23 mg/dL
same,GLUCOSE,[2]; [5],165 mg/dL
same,LACTATE DEHYDROGENASE,[2]; [5],502.17 u/L
same,LIPASE,[2]; [5],11 u/L
same,PHOSPHORUS,[2]; [5],11.7 mg/dL
same,POTASSIUM,[2]; [5],5.85 MEQ/L
same,TOTAL BILIRUBIN,[2]; [5],0.18 mg/dL
